Assay results taken from publication PMC8151276, “An Integrated Approach toward NanoBRET Tracers for Analysis of GPCR Ligand Engagement” (Molecules, 2021).
Each block holds one molecule with its values, some of them ahead of it.

What was measured:
Format in all cases: binding
PDGFRB = biological target: T1, PDGFRB (Homo sapiens, UniProt P09619); experiment: NanoBRET screen HiBiT-PDGFRB in HEK293
T1 construct: purchased Promega (in-house HiBiT-GPCR construct library, NanoBRET)
Description: (§1) Each tracer candidate was screened across the entire library of HiBiT-GPCR constructs using NanoBRET as the detection modality. As depicted in Figure 4A, the specificity of interactions was evaluated through decrease in BRET due to competitive displacement of a bound tracer by excess parental compound. Each tracer was analyzed for binding to each HiBiT-GPCR fusion in the absence and in the presence of competing parental compound. Briefly, HEK293 cells were transfected with HiBiT-GPCR constructs diluted into promoterless DNA to reduce expression and maximize translocation to the cell surface. Each tracer candidate was then screened at concentrations of 1 μM and 0.1 μM across cells expressing these fusions. Cells were treated for 1.5 h with tracer either alone or in the presence of 20 μM competing parental compound (i.e., control). BRET was measured upon addition of purified LgBiT and subsequent complementation with HiBiT genetically fused to a GPCR. The specificity of interactions was assessed through a decrease in BRET signal due to competitive displacement of the bound tracer. To further gauge the robustness of these interactions, the fold response over the control (i.e., BRETtracer/BRETcontrol) was calculated. We chose a 1.5-fold response, which translates to ≥7-fold signal over noise as the minimal threshold required to score an interaction as positive. […]. Below we highlight the screening results obtained for our exemplary fluorescent tracers based on Clozapine, Amitriptyline and AZD1283.
(§2) HiBiT-GPCR DNA constructs were diluted in 10 mM Tris pH 8 to a final concentration of 0.01 μg/μL, arrayed in 96-well plates and stored at −20 °C. For transfection, HEK293 cells were suspended in Opti-MEM (without phenol red) supplemented with 2% fetal bovine serum (Seradigm) and 100 units/mL penicillin–streptomycin (Gibco) at a final concentration of 220,000 cells/mL and dispensed into white 96-well plates at 90 μL/well. Subsequent transfections and screens were carried using an Agilent Bravo Automated Liquid Handling Platform. First, the 96-well HiBiT DNA arrays were diluted 25-fold in Opti-MEM (without serum or phenol red) to a final concentration of 0.0004 μg/μL and 20 μL of the diluted DNAs were transferred into new 96-well plates. Next, promoterless carrier DNA (1 μg/μL) was diluted 25-fold (0.04 μg/μL) and then dispensed into the diluted arrays at 20 μL/well. Following brief mixing, Viafect transfection reagent (Promega) diluted 16-fold into Opti-MEM was dispensed into the plates at 40 μL/well. After mixing by pipetting, plates were incubated for 10 min on the pipetting station deck. The DNA-transfection reagent complexes were then added to plates containing cells. To facilitate the screen, 10 μL of DNA-transfection reagent complexes were added in duplicates to the top 4 and bottom 4 rows, resulting in two identical 48-well arrays per plate. Plates with transfected cells were incubated for 18–20 h at 37 °C/5% CO2. A screen of each tracer across the entire library using two different concentrations requires duplicate plates of transfected cells. Depending on the number of tracers being screened, transfections can be scaled up using the same ratios. The next day, for each tracer, four 20× screening solutions in tracer dilution buffer (Promega) were prepared: two duplicates at final concentration of 20 μM and two duplicates at a final concentration of 2 μM. A competing unmodified compound was added to one of each duplicate at a final concentration of 400 μM. The four resulting solutions were diluted 4-fold in Opti-MEM without serum or phenol red to generate 5× solutions (5 µM and 0.5 µM tracer +/− 100 μM competing compound). To screen the library, a BioTek MultiFlo FX liquid dispenser was used to dispense 22.5 µL of tracer solution to the top 4 rows and 22.5 µL tracer + competing compound solution to the 4 bottom rows. Plates were briefly mixed on an orbital shaker and incubated for 1.5 h at room temperature. […]

C5AR1 = biological target: T2, C5AR1 (Homo sapiens, UniProt P21730); experiment: NanoBRET screen HiBiT-C5AR1 in HEK293
T2 construct: purchased Promega (in-house HiBiT-GPCR construct library, NanoBRET)
T2 sequence (P21730 1-350): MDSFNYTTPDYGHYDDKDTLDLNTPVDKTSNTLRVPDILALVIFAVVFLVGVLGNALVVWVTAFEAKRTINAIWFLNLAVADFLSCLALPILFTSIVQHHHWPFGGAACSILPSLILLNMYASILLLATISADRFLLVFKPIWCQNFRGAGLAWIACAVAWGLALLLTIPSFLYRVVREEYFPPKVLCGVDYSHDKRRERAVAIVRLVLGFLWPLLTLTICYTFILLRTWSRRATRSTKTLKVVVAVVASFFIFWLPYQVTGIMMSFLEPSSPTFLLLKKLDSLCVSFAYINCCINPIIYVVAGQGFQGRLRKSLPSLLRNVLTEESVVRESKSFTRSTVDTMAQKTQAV
Description: as §1, §2

BDKRB2 = biological target: T3, BDKRB2 (Homo sapiens, UniProt P30411); experiment: NanoBRET screen HiBiT-BDKRB2 in HEK293
T3 construct: purchased Promega (in-house HiBiT-GPCR construct library, NanoBRET)
T3 sequence (P30411 1-391): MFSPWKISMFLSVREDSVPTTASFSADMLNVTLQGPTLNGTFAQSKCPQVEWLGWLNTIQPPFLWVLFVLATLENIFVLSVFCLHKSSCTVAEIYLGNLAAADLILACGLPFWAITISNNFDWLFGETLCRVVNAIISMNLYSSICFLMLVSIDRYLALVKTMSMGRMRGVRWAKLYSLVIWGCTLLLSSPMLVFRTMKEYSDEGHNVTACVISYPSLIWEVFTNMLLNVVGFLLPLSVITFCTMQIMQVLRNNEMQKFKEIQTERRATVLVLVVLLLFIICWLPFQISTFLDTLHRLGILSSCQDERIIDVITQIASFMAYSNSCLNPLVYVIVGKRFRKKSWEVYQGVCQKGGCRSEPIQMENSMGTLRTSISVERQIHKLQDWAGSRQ
Description: as §1, §2

[1] = tracer at 1μM, listed as amitriptyline-b-2-NB590
[2] = tracer at 0.1μM, listed as amitriptyline-b-2-NB590

T1 sequence (P09619 33-1106): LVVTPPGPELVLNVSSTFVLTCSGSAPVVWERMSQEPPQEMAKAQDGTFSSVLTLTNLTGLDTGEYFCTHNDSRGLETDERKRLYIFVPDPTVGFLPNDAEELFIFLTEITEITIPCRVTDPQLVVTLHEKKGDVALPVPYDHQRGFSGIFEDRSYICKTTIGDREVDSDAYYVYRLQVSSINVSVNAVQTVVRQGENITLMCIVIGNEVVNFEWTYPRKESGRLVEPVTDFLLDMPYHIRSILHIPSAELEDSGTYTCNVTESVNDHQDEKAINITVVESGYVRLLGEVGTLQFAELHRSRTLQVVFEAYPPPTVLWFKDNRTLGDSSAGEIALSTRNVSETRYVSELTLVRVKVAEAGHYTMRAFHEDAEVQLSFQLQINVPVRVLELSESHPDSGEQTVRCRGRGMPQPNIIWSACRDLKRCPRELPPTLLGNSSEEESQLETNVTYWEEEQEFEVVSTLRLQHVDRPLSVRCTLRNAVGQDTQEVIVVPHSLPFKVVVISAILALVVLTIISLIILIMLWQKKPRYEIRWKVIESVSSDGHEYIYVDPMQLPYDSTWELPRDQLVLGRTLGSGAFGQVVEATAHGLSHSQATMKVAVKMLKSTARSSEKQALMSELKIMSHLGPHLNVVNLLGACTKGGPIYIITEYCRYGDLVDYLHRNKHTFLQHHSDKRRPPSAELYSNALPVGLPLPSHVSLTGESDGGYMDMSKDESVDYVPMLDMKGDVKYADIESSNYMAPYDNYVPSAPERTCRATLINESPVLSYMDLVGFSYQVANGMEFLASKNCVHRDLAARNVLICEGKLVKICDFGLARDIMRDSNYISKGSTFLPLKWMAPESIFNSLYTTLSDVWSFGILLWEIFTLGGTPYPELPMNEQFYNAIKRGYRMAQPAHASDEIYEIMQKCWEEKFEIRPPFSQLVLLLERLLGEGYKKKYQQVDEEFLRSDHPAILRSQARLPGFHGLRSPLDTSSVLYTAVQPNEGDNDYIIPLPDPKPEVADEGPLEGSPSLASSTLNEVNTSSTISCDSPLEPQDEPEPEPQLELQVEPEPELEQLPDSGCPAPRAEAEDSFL

SMILES: CC(C)N(CC[C@H](c1ccccc1)c1cc(CCNC(=O)CCOCCOCCOCCOCCNC(=O)CCc2ccc3n2[B-](F)(F)[N+]2=C(c4ccc[nH]4)C=CC2=C3)ccc1O)C(C)C [Tolterodine-2-NB590]
- NanoBRET Fold Response (PDGFRB; PDGFRB, tracer 0.1μM): 1.22
- NanoBRET Fold Response (PDGFRB; PDGFRB, tracer 1μM): 0.94
- NanoBRET Fold Response (C5AR1; C5AR1, tracer 0.1μM): 0.95
- NanoBRET Fold Response (C5AR1; C5AR1, tracer 1μM): 1.08
- NanoBRET Fold Response (BDKRB2; BDKRB2, tracer 0.1μM): 0.96
- NanoBRET Fold Response (BDKRB2; BDKRB2, tracer 1μM): 0.95

- NanoBRET Fold Response (PDGFRB; PDGFRB, tracer 0.1μM): 0.90
- NanoBRET Fold Response (PDGFRB; PDGFRB, tracer 1μM): 1.01
- NanoBRET Fold Response (C5AR1; C5AR1, tracer 0.1μM): 0.99
- NanoBRET Fold Response (C5AR1; C5AR1, tracer 1μM): 0.98
- NanoBRET Fold Response (BDKRB2; BDKRB2, tracer 0.1μM): 1.00
- NanoBRET Fold Response (BDKRB2; BDKRB2, tracer 1μM): 1.01
SMILES: N#CN=C(NCCCOc1cccc(CN2CCCCC2)c1)NCCNC(=O)CCOCCOCCOCCOCCNC(=O)CCc1ccc2n1[B-](F)(F)[N+]1=C(c3ccc[nH]3)C=CC1=C2 [Aminopotentidine-2-NB590]

- NanoBRET Fold Response (PDGFRB; PDGFRB, 0.1μM): 1.10
- NanoBRET Fold Response (PDGFRB; PDGFRB, 1μM): 1.16
- NanoBRET Fold Response (C5AR1; C5AR1, 0.1μM): 1.07
- NanoBRET Fold Response (C5AR1; C5AR1, 1μM): 1.07
- NanoBRET Fold Response (BDKRB2; BDKRB2, 0.1μM): 1.06
- NanoBRET Fold Response (BDKRB2; BDKRB2, 1μM): 1.04
SMILES: CCOC(=O)c1cc(C#N)c(N2CCC(C(=O)NS(=O)(=O)Cc3ccccc3/C=C/C(=O)NCCNC(=O)CCc3ccc4n3[B-](F)(F)[N+]3=C(c5ccc[nH]5)C=CC3=C4)CC2)nc1C [AZD1283-1-NB590]

SMILES: CN(C)CCC=C1c2ccccc2CCc2ccc(C(=O)NCCNC(=O)CCOCCOCCOCCOCCNC(=O)CCc3ccc4n3[B-](F)(F)[N+]3=C(c5ccc[nH]5)C=CC3=C4)cc21 [Amitriptyline-b-2-NB590]
- NanoBRET Fold Response (PDGFRB; tracer at 0.1μM): 0.97
- NanoBRET Fold Response (PDGFRB; [1]): 0.99
- NanoBRET Fold Response (C5AR1; [2]): 1.01
- NanoBRET Fold Response (C5AR1; tracer at 1μM): 0.97
- NanoBRET Fold Response (BDKRB2; [2]): 1.05
- NanoBRET Fold Response (BDKRB2; [1]): 1.12

SMILES: CN(C)CCC=C1c2ccccc2CCc2ccc(C(=O)NCCNC(=O)CCOCCOCCOCCOCCNC(=O)CCc3ccc4n3[B-](F)(F)[N+]3=C(c5ccc[nH]5)C=CC3=C4)cc21 [Amitriptyline-a-2-NB590]
- NanoBRET Fold Response (PDGFRB; tracer at 0.1μM): 1.17
- NanoBRET Fold Response (PDGFRB; tracer at 1μM): 1.06
- NanoBRET Fold Response (C5AR1; tracer at 0.1μM): 1.03
- NanoBRET Fold Response (C5AR1; tracer at 1μM): 1.01
- NanoBRET Fold Response (BDKRB2; tracer at 0.1μM): 1.01
- NanoBRET Fold Response (BDKRB2; tracer at 1μM): 1.04

SMILES: O=C(CCc1ccc2n1[B-](F)(F)[N+]1=C(c3ccc[nH]3)C=CC1=C2)NCCOCCOCCNC(=O)OCCOCCN1CCN(C2=Nc3ccccc3Sc3ccccc32)CC1 [Quetiapine-a-2-NB590]
- NanoBRET Fold Response (PDGFRB; PDGFRB, tracer 0.1μM): 1.13
- NanoBRET Fold Response (PDGFRB; PDGFRB, tracer 1μM): 1.03
- NanoBRET Fold Response (C5AR1; C5AR1, tracer 0.1μM): 1.07
- NanoBRET Fold Response (C5AR1; C5AR1, tracer 1μM): 0.84
- NanoBRET Fold Response (BDKRB2; BDKRB2, tracer 0.1μM): 1.11
- NanoBRET Fold Response (BDKRB2; BDKRB2, tracer 1μM): 0.81

SMILES: Cc1cc2c(s1)Nc1ccccc1N=C2N1CCN(CCCNC(=O)CCOCCOCCOCCOCCNC(=O)CCc2ccc3n2[B-](F)(F)[N+]2=C(c4ccc[nH]4)C=CC2=C3)CC1 [Olanzapine-a-2-NB590]
- NanoBRET Fold Response (PDGFRB; PDGFRB, tracer 0.1μM): 0.98
- NanoBRET Fold Response (PDGFRB; PDGFRB, tracer 1μM): 1.05
- NanoBRET Fold Response (C5AR1; C5AR1, tracer 0.1μM): 1.06
- NanoBRET Fold Response (C5AR1; C5AR1, tracer 1μM): 1.09
- NanoBRET Fold Response (BDKRB2; BDKRB2, tracer 0.1μM): 0.97
- NanoBRET Fold Response (BDKRB2; BDKRB2, tracer 1μM): 1.06

SMILES: CN1CCN(C2=Nc3cc(Cl)ccc3Nc3ccc(CNC(=O)CCOCCOCCOCCOCCNC(=O)CCc4ccc5n4[B-](F)(F)[N+]4=C(c6ccc[nH]6)C=CC4=C5)cc32)CC1 [Clozapine-b-2-NB590]
- NanoBRET Fold Response (PDGFRB; PDGFRB, 0.1μM tracer): 1.02
- NanoBRET Fold Response (PDGFRB; PDGFRB, 1μM tracer): 0.99
- NanoBRET Fold Response (C5AR1; C5AR1, 0.1μM tracer): 0.98
- NanoBRET Fold Response (C5AR1; C5AR1, 1μM tracer): 1.02
- NanoBRET Fold Response (BDKRB2; BDKRB2, 0.1μM tracer): 1.00
- NanoBRET Fold Response (BDKRB2; BDKRB2, 1μM tracer): 1.00

- NanoBRET Fold Response (PDGFRB; 0.1μM tracer): 0.56
- NanoBRET Fold Response (PDGFRB; 1μM tracer): 0.56
- NanoBRET Fold Response (C5AR1; 0.1μM tracer): 0.90
- NanoBRET Fold Response (C5AR1; 1μM tracer): 0.94
- NanoBRET Fold Response (BDKRB2; 0.1μM tracer): 1.00
- NanoBRET Fold Response (BDKRB2; 1μM tracer): 1.05
SMILES: COc1ccc2c(n1)c(CCNC(C)=O)cn2CCNC(=O)CCc1ccc2n1[B-](F)(F)[N+]1=C(c3ccc[nH]3)C=CC1=C2 [Azamelatonin-1-NB590]

SMILES: O=C(CCc1ccc2n1[B-](F)(F)[N+]1=C(c3ccc[nH]3)C=CC1=C2)NCc1ccc(C(=O)NCCOCCOCCNCC(O)COc2cccc3ccccc23)cc1 (stereo not drawn) [Propranolol-3-NB590]
- NanoBRET Fold Response (PDGFRB; PDGFRB, 0.1μM): 1.05
- NanoBRET Fold Response (PDGFRB; PDGFRB, 1μM): 0.98
- NanoBRET Fold Response (C5AR1; C5AR1, 0.1μM): 1.05
- NanoBRET Fold Response (C5AR1; C5AR1, 1μM): 1.03
- NanoBRET Fold Response (BDKRB2; BDKRB2, 0.1μM): 1.04
- NanoBRET Fold Response (BDKRB2; BDKRB2, 1μM): 1.07

- NanoBRET Fold Response (PDGFRB; PDGFRB, 0.1μM tracer): 1.09
- NanoBRET Fold Response (PDGFRB; PDGFRB, 1μM tracer): 0.88
- NanoBRET Fold Response (C5AR1; C5AR1, 0.1μM tracer): 1.04
- NanoBRET Fold Response (C5AR1; C5AR1, 1μM tracer): 1.11
- NanoBRET Fold Response (BDKRB2; BDKRB2, 0.1μM tracer): 1.02
- NanoBRET Fold Response (BDKRB2; BDKRB2, 1μM tracer): 1.13
SMILES: O=C(CCOCCOCCOCCOCCNC(=O)CCc1ccc2n1[B-](F)(F)[N+]1=C(c3ccc[nH]3)C=CC1=C2)NCCCN1CCN(C2=Nc3cc(Cl)ccc3Nc3ccccc32)CC1 [Clozapine-a-2-NB590]
